From the NIST ThermoML archive (doi:10.1016/j.tca.2017.02.015)
Numbers after ± are expanded uncertainties.

Key:
[1] = molar heat capacity at constant pressure; details: Liquid, Flow calorimetry
[2] = molar heat capacity at constant pressure; xn = mol fraction of the nth substance listed; details: Liquid, Flow calorimetry

CCCCCCCCCC(=O)OC [methyl decanoate]
[1]
Details | molar heat capacity at constant pressure [J/K/mol]
313.71 K, 100 kPa | 383.9 ± 3.9
313.82 K, 4070 kPa | 382.1 ± 3.9
313.83 K, 8030 kPa | 380.5 ± 3.8
313.99 K, 12010 kPa | 378.5 ± 3.8
314.01 K, 16140 kPa | 376.6 ± 3.8
324.79 K, 100 kPa | 387.6 ± 3.9
324.79 K, 4070 kPa | 386 ± 3.9
325.01 K, 8030 kPa | 384.4 ± 3.9
325.06 K, 12010 kPa | 382.5 ± 3.9
325.2 K, 16140 kPa | 379.3 ± 3.8
334.12 K, 100 kPa | 393.2 ± 4
334.33 K, 8030 kPa | 388.3 ± 3.9
334.53 K, 4070 kPa | 390.3 ± 3.9
334.6 K, 12010 kPa | 386.2 ± 3.9
334.84 K, 16140 kPa | 384.2 ± 3.9

CCCCCCCCCC(=O)OC [methyl decanoate] + CCCCCCCCCCCC(=O)OC
[2], x2 = 0
Details | molar heat capacity at constant pressure [J/K/mol]
313.71 K, 100 kPa | 383.9 ± 3.9
313.82 K, 4070 kPa | 382.1 ± 3.9
313.83 K, 8030 kPa | 380.5 ± 3.8
313.99 K, 12010 kPa | 378.5 ± 3.8
314.01 K, 16140 kPa | 376.6 ± 3.8
324.79 K, 100 kPa | 387.6 ± 3.9
324.79 K, 4070 kPa | 386 ± 3.9
325.01 K, 8030 kPa | 384.4 ± 3.9
325.06 K, 12010 kPa | 382.5 ± 3.9
325.2 K, 16140 kPa | 379.3 ± 3.8
334.12 K, 100 kPa | 393.2 ± 4
334.33 K, 8030 kPa | 388.3 ± 3.9
334.53 K, 4070 kPa | 390.3 ± 3.9
334.6 K, 12010 kPa | 386.2 ± 3.9
334.84 K, 16140 kPa | 384.2 ± 3.9

CCCCCCCCCCCC(=O)OC [methyl dodecanoate] + CCCCCCCCCC(=O)OC
[2]
Details | molar heat capacity at constant pressure [J/K/mol]
313.71 K, 100 kPa, x1 = 0.5001 | 414.9 ± 4.2
313.82 K, 4060 kPa, x1 = 0.5001 | 413.3 ± 4.2
313.83 K, 8100 kPa, x1 = 0.5001 | 412.3 ± 4.2
313.97 K, 100 kPa, x1 = 1 | 442.6 ± 4.5
313.99 K, 4040 kPa, x1 = 1 | 441.6 ± 4.5
313.99 K, 12140 kPa, x1 = 0.5001 | 410.1 ± 4.1
314.01 K, 100 kPa, x1 = 0.6999 | 426.4 ± 4.3
314.01 K, 16150 kPa, x1 = 0.5001 | 408.9 ± 4.1
314.06 K, 8070 kPa, x1 = 1 | 439.5 ± 4.4
314.08 K, 4080 kPa, x1 = 0.6999 | 425.1 ± 4.3
314.09 K, 12160 kPa, x1 = 1 | 438.3 ± 4.4
314.14 K, 16180 kPa, x1 = 1 | 436.9 ± 4.4
314.17 K, 12080 kPa, x1 = 0.6999 | 421.2 ± 4.3
314.18 K, 8140 kPa, x1 = 0.6999 | 422.7 ± 4.3
314.21 K, 16150 kPa, x1 = 0.6999 | 419.4 ± 4.2
314.37 K, 100 kPa, x1 = 0.3001 | 403.7 ± 4.1
314.53 K, 4090 kPa, x1 = 0.3001 | 402.2 ± 4.1
314.71 K, 8010 kPa, x1 = 0.3001 | 400.6 ± 4
314.95 K, 12020 kPa, x1 = 0.3001 | 397.7 ± 4
315.06 K, 16080 kPa, x1 = 0.3001 | 395.6 ± 4
323.53 K, 100 kPa, x1 = 0.3001 | 412 ± 4.2
323.58 K, 4100 kPa, x1 = 0.3001 | 409.5 ± 4.1
323.69 K, 8070 kPa, x1 = 0.3001 | 406.9 ± 4.1
323.84 K, 12080 kPa, x1 = 0.3001 | 403.9 ± 4.1
323.84 K, 12090 kPa, x1 = 1 | 444.8 ± 4.5
323.88 K, 100 kPa, x1 = 1 | 449.5 ± 4.5
323.93 K, 4070 kPa, x1 = 1 | 447.2 ± 4.5
323.94 K, 16080 kPa, x1 = 1 | 443.3 ± 4.5
324.01 K, 8060 kPa, x1 = 1 | 445.8 ± 4.5
324.05 K, 100 kPa, x1 = 0.6999 | 435.5 ± 4.4
324.08 K, 4120 kPa, x1 = 0.6999 | 433.4 ± 4.4
324.13 K, 8050 kPa, x1 = 0.6999 | 431.3 ± 4.4
324.19 K, 12080 kPa, x1 = 0.6999 | 428.2 ± 4.3
324.24 K, 16120 kPa, x1 = 0.6999 | 426.4 ± 4.3
324.39 K, 16190 kPa, x1 = 0.3001 | 400.5 ± 4
324.79 K, 100 kPa, x1 = 0.5001 | 424.4 ± 4.3
324.79 K, 4150 kPa, x1 = 0.5001 | 421.6 ± 4.3
325.01 K, 8140 kPa, x1 = 0.5001 | 418.7 ± 4.2
325.06 K, 12110 kPa, x1 = 0.5001 | 416.1 ± 4.2
325.2 K, 16230 kPa, x1 = 0.5001 | 413.7 ± 4.2
333.55 K, 100 kPa, x1 = 0.3001 | 418.3 ± 4.2
333.71 K, 100 kPa, x1 = 0.6999 | 442.8 ± 4.5
333.76 K, 4130 kPa, x1 = 0.3001 | 415.8 ± 4.2
333.79 K, 8110 kPa, x1 = 0.3001 | 413.5 ± 4.2
333.88 K, 100 kPa, x1 = 1 | 456.4 ± 4.6
333.96 K, 4050 kPa, x1 = 1 | 453.6 ± 4.6
333.97 K, 12160 kPa, x1 = 0.6999 | 434.7 ± 4.4
333.98 K, 4150 kPa, x1 = 0.6999 | 440.9 ± 4.5
334 K, 8050 kPa, x1 = 1 | 452.1 ± 4.6
334.03 K, 12080 kPa, x1 = 0.3001 | 411.7 ± 4.2
334.04 K, 8040 kPa, x1 = 0.6999 | 439 ± 4.4
334.04 K, 16170 kPa, x1 = 0.6999 | 431.9 ± 4.4
334.05 K, 12060 kPa, x1 = 1 | 450.5 ± 4.6
334.11 K, 16170 kPa, x1 = 1 | 448 ± 4.5
334.12 K, 100 kPa, x1 = 0.5001 | 431.7 ± 4.4
334.21 K, 16110 kPa, x1 = 0.3001 | 408.4 ± 4.1
334.33 K, 8140 kPa, x1 = 0.5001 | 425.5 ± 4.3
334.53 K, 4120 kPa, x1 = 0.5001 | 428.8 ± 4.3
334.6 K, 12200 kPa, x1 = 0.5001 | 423.1 ± 4.3
334.84 K, 16030 kPa, x1 = 0.5001 | 420.7 ± 4.3

CCCCCCCCCCCC(=O)OC [methyl dodecanoate]
[1]
Details | molar heat capacity at constant pressure [J/K/mol]
313.97 K, 100 kPa | 442.6 ± 4.5
313.99 K, 4040 kPa | 441.6 ± 4.5
314.06 K, 8070 kPa | 439.5 ± 4.4
314.09 K, 12160 kPa | 438.3 ± 4.4
314.14 K, 16180 kPa | 436.9 ± 4.4
323.84 K, 12090 kPa | 444.8 ± 4.5
323.88 K, 100 kPa | 449.5 ± 4.5
323.93 K, 4070 kPa | 447.2 ± 4.5
323.94 K, 16080 kPa | 443.3 ± 4.5
324.01 K, 8060 kPa | 445.8 ± 4.5
333.88 K, 100 kPa | 456.4 ± 4.6
333.96 K, 4050 kPa | 453.6 ± 4.6
334 K, 8050 kPa | 452.1 ± 4.6
334.05 K, 12060 kPa | 450.5 ± 4.6
334.11 K, 16170 kPa | 448 ± 4.5
